Among the data in patent US12643887B2, “Heterocyclic derivatives with cardiomyocyte proliferation activity for treatment of heart diseases” (Tongji University, priority 2019, dated 2026) are IC50 values, retold here.

Where only a bound is given, the exact number is not on record here.

Experiment [1] concerns the target T1, human HIPK2 (Homo sapiens, UniProt Q9H2X6).
T1 construct: Recombinant human HIPK2 (1-640); GST (N); purchased SignalChem H04-11BG; host or cells: Sf9 insect cells
Briefly: HIPK2 enzyme assay (ADP-Glo). The format is biochemical. Particulars: ADP-Glo, ATP 5 μM; read-out: HIPK2 IC50. As to the method:
The ability of compounds to inhibit human HIPK2 kinase activities was determined using a commercially available ADP-Glo™ Kinase Assay kit (Promega, Cat #V9102) according to the manufacturer's protocol.
(§1) Recombinant human HIPK2 (1-640) (expressed in Sf9 insect cells with an N-terminal GST tag) was purchased from SignalChem (Cat #H04-11BG). Recombinant full length human MBP (expressed in E. Coli cells with an N-terminal GST tag) was purchased from SignalChem (Cat #M42-54G). This assay, run in a 384-well plate format, is a generic method for measuring kinase activities using an ADP-Glo Kinase Assay Kit. The basic assay procedure involves two steps: (1) Enzymatic step: inhibitors are incubated with the kinase and then ATP (included in the ADP-Glo Kinase Assay Kit) and the MBP protein are added to start the enzymatic reaction; (2) Detection step: after the kinase reaction, first ADP-Glo™ Reagent is added to terminate the kinase reaction and deplete the remaining ATP. Second, the Kinase Detection Reagent is added to simultaneously convert ADP to ATP and allow the newly synthesized ATP to be measured using a luciferase/luciferin reaction. The light generated is measured using a luminometer.
Briefly, HIPK2 (1 nM) in the enzymatic buffer solutions (40 mM Tris, pH 7.5, 20 mM MgCl2, 0.1 mg/ml BSA, 50 μM DTT) were mixed with various concentrations of inhibitors (dissolved in 100% DMSO). These solutions were incubated for 30 minutes at 25° C., and subsequently a mixture of substrate peptide and ATP was added with the final peptide and ATP concentrations at 0.05 mg/ml and 5 μM, respectively. The final reaction mixture of enzyme-substrate-ATP-compound was incubated for 90 minutes at 25° C.
(§2) Afterwards ADP-Glo™ Reagent was added and the mixture was incubated at 25° C. for 60 minutes. Then Kinase Detection Reagent was added, and the final mixture was incubated at 25° C. for 60 minutes. The luminescence signal of the final solution was measured on an Envision instrument (PerkinElmer). The percent (%) inhibition at each concentration of a compound is calculated relative to the luminescence signal in the Max and Min control wells contained within each assay plate. […] The concentrations and percent inhibition values for a test compound are plotted and the concentration of the compound required to achieve 50% inhibition (IC50) is determined with a four-parameter logistic dose response equation.

Experiment [2] has as its target T2, human DYRK1A (Homo sapiens, UniProt Q13627).
T2 construct: Recombinant full-length DYRK1A (expressed in E. Coli cells with an N-terminal GST tag); GST (N); purchased SignalChem D09-10G; host or cells: E. coli
Briefly: DYRK1A enzyme assay (ADP-Glo). The class given is biochemical. Conditions: ADP-Glo, ATP 60 μM; read-out: DYRK1A IC50. As for the experimental part: The ability of compounds to inhibit human DYRK1A kinase activities was determined using a commercially available ADP-Glo™ Kinase Assay kit (Promega, Cat #V9102) according to the manufacturer's protocol.
as §1, with “full-length DYRK1A” for “human HIPK2 (1-640) (expressed in Sf9 insect cells with an N-terminal GST tag) was purchased from SignalChem (Cat #H04-11BG). Recombinant full length human MBP”, “#D09-10G). The DYRK substrate peptide (DYRKtide, sequence: […]) was purchased from SignalChem (Cat #D96-58).” for “#M42-54G).”, “DYRKtide” for “MBP protein”
Briefly, DYRK1A (3 nM) in the enzymatic buffer solutions (40 mM Tris, pH 7.5, 20 mM MgCl2, 0.1 mg/ml BSA, 50 μM DTT) were mixed with various concentrations of inhibitors (dissolved in 100% DMSO). These solutions were incubated for 30 minutes at 25° C., and subsequently a mixture of substrate peptide and ATP was added with the final peptide and ATP concentrations at 20 μM and 60 μM, respectively. The final reaction mixture of enzyme-substrate-ATP-compound was incubated for 60 minutes at 25° C.
as §2, with “added” for “added,”

T1 sequence (Q9H2X6 1-640): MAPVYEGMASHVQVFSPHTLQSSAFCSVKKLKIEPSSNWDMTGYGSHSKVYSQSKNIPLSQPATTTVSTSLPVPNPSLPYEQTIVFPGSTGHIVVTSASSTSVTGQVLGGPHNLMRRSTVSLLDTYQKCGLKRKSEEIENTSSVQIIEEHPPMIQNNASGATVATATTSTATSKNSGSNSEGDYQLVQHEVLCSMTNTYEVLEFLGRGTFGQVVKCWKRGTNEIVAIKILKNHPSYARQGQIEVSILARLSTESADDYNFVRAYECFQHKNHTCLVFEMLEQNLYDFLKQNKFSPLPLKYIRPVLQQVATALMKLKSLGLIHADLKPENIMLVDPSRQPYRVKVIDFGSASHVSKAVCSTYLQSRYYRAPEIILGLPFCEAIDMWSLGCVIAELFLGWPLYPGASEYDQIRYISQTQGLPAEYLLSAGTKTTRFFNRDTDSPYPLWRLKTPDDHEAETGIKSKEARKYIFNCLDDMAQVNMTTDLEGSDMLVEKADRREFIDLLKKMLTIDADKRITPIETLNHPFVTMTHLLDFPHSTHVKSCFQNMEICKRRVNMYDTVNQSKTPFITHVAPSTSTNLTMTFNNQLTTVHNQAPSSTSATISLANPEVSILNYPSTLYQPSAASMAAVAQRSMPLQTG

Consider `O=C1NC(NC23CC4CC(CC(C4)C2)C3)=N/C1=C\c1ccc2scnc2c1` [Example 50, (Z)-2-(adamantan-1-ylamino)-5-(benzo[d]thiazol-5-ylmethylene)-3,5-dihydro-4H-imidazol-4-one], for which the IC50 in experiment [1] is more than 10 µM; in experiment [2], 1000 to 10000 nM.

On to `O=C1NC(Nc2ccccc2)=N/C1=C\c1ccc2cn[nH]c2c1` [Example 54, (Z)-5-((1H-indazol-6-yl)methylene)-2-(phenylamino)-3,5-dihydro-4H-imidazol-4-one], for which the IC50 in experiment [1] is more than 10 µM; in experiment [2], more than 10000 nM.

Take `O=C1NC(NCCN2CCOCC2)=N/C1=C\c1ccc2ncsc2c1` [Example 29, (Z)-5-(benzo[d]thiazol-6-ylmethylene)-2-((2-morpholinoethyl)amino)-3,5-dihydro-4H-imidazol-4-one]: the 50% inhibitory concentration (IC50) in experiment [1] is 1 to 10 µM; in experiment [2] it was 100 to 1000 nM.

For the compound `CN1C(=O)/C(=C/c2ccc3c(c2)OCO3)N=C1N(C)c1ccccc1` [Example 3, (Z)-5-(benzo[d][1,3]dioxol-5-ylmethylene)-3-methyl-2-(methyl(phenyl)amino)-3,5-dihydro-4H-imidazol-4-one], the figures for the half-inhibitory concentration (IC50) in experiment [1] and in experiment [2] were more than 10 µM and 1000 to 10000 nM, respectively.

As for `CN(Cc1ccccc1)C1=N/C(=C\c2ccc3ncsc3c2)C(=O)N1` [Example 28, (Z)-5-(benzo[d]thiazol-6-ylmethylene)-2-(benzyl(methyl)amino)-3,5-dihydro-4H-imidazol-4-one], the IC50 is 1 to 10 µM in experiment [1] and 100 to 1000 nM in experiment [2].

Turning to `Cn1ncc2ccc(/C=C3\N=C(Nc4ccc5ncsc5c4)NC3=O)cc21` [Example 80, (Z)-2-(benzo[d]thiazol-6-ylamino)-5-((1-methyl-1H-indazol-6-yl)methylene)-3,5-dihydro-4H-imidazol-4-one], the concentration for half-maximal inhibition (IC50) was more than 10 µM in experiment [1] and more than 10000 nM in experiment [2].

For the compound `O=C1NC(Nc2ccc3ncsc3c2)=N/C1=C\c1ccc2c(c1)OCCO2` [Example 74, (Z)-2-(benzo[d]thiazol-6-ylamino)-5-((2,3-dihydrobenzo[b][1,4]dioxin-6-yl)methylene)-3,5-dihydro-4H-imidazol-4-one], the IC50 in experiment [1] was more than 10 µM; in experiment [2] it was more than 10000 nM.

`O=C1NC(N(Cc2ccccc2)c2ccccc2)=N/C1=C\c1ccc2ncsc2c1` [Example 41, (Z)-5-(benzo[d]thiazol-6-ylmethylene)-2-(benzyl(phenyl)amino)-3,5-dihydro-4H-imidazol-4-one]: the IC50 in experiment [1] was in the range of 1 to 10 µM; in experiment [2], 100 to 1000 nM.

As for `O=C1NC(N(CCO)c2ccccc2)=N/C1=C\c1ccc2c(c1)OCO2` [Example 13, (Z)-5-(benzo[d][1,3]dioxol-5-ylmethylene)-2-((2-hydroxyethyl)(phenyl)amino)-3,5-dihydro-4H-imidazol-4-one], the figures for the IC50 in experiment [1] and in experiment [2] were 1 to 10 µM and 100 to 1000 nM, respectively.

As for `O=C1NC(Nc2ccccc2)=N/C1=C\c1ccc2nn[nH]c2c1` [Example 56, (Z)-5-((1H-benzo[d][1,2,3]triazol-6-yl)methylene)-2-(phenylamino)-3,5-dihydro-4H-imidazol-4-one], the half-maximal inhibitory concentration (IC50) in experiment [1] is 1 to 10 µM; in experiment [2], less than 100 nM.

Take `O=C1NC(Nc2ccccc2)=N/C1=C\c1cncs1` [Example 15, (Z)-2-(phenylamino)-5-(thiazol-5-ylmethylene)-3,5-dihydro-4H-imidazol-4-one]: the results for the IC50 in experiment [1] and in experiment [2] were more than 10 µM and more than 10000 nM, respectively.

`CN(C1=N/C(=C\c2ccc3ncsc3c2)C(=O)N1)c1ccc2ncsc2c1` [Example 83, (Z)-2-(benzo[d]thiazol-6-yl(methyl)amino)-5-(benzo[d]thiazol-6-ylmethylene)-3,5-dihydro-4H-imidazol-4-one]: the IC50 in experiment [1] was more than 10 µM; in experiment [2], 100 to 1000 nM.

Take `O=C1NC(Nc2ccccc2)=N/C1=C\c1ccc2[nH]ccc2c1` [Example 51, (Z)-5-((1H-indol-5-yl)methylene)-2-(phenylamino)-3,5-dihydro-4H-imidazol-4-one]: the IC50 is more than 10 µM in experiment [1] and more than 10000 nM in experiment [2].

With `O=C1NC(Nc2ccccc2)=N/C1=C\c1ccc2sccc2c1` [Example 72, (Z)-5-(benzo[b]thiophen-5-ylmethylene)-2-(phenylamino)-3,5-dihydro-4H-imidazol-4-one], the IC50 in experiment [1] is more than 10 µM; in experiment [2], more than 10000 nM.

Consider `CN(C1=N/C(=C\c2ccc3c(c2)OCCO3)C(=O)N1)c1ccc2ncsc2c1` [Example 84, (Z)-2-(benzo[d]thiazol-6-yl(methyl)amino)-5-((2,3-dihydrobenzo[b][1,4]dioxin-6-yl)methylene)-3,5-dihydro-4H-imidazol-4-one], for which the half-inhibitory concentration (IC50) is 1 to 10 µM in experiment [1] and 100 to 1000 nM in experiment [2].

Turning to `CN(C1=N/C(=C\c2ccc3c(c2)OCO3)C(=O)N1)c1cccnc1` [Example 18, (Z)-5-(benzo[d][1,3]dioxol-5-ylmethylene)-2-(methyl(pyridin-3-yl)amino)-3,5-dihydro-4H-imidazol-4-one], the 50% inhibitory concentration (IC50) is more than 10 µM in experiment [1] and 100 to 1000 nM in experiment [2].

Take `O=C1NC(Nc2ccccc2)=N/C1=C\c1ccc2scnc2c1` [Example 14, (Z)-5-(benzo[d]thiazol-5-ylmethylene)-2-(phenylamino)-3,5-dihydro-4H-imidazol-4-one]: the IC50 in experiment [1] was more than 10 µM; in experiment [2], more than 10000 nM.

In the case of `COc1ccc(N(C)C2=N/C(=C\c3ccc4c(c3)OCO4)C(=O)N2)cc1` [Example 12, (Z)-5-(benzo[d][1,3]dioxol-5-ylmethylene)-2-((4-methoxyphenyl)(methyl)amino)-3,5-dihydro-4H-imidazol-4-one], the IC50 in experiment [1] was more than 10 µM; in experiment [2], 100 to 1000 nM.

For the compound `O=C1NC(N(Cc2ccccc2)c2ccccc2)=N/C1=C\c1ccc2c(c1)OCO2` [Example 22, (Z)-5-(benzo[d][1,3]dioxol-5-ylmethylene)-2-(benzyl(phenyl)amino)-3,5-dihydro-4H-imidazol-4-one], the IC50 in experiment [1] was more than 10 µM; in experiment [2], more than 10000 nM.

Consider `CN(CCN1CCOCC1)C1=N/C(=C\c2ccc3ncsc3c2)C(=O)N1` [Example 32, (Z)-5-(benzo[d]thiazol-6-ylmethylene)-2-(methyl(2-morpholinoethyl)amino)-3,5-dihydro-4H-imidazol-4-one], for which the results for the IC50 in experiment [1] and in experiment [2] were more than 10 µM and 1000 to 10000 nM, respectively.

In the case of `CN(C1=N/C(=C\c2ccc3c(c2)OCO3)C(=O)N1)c1ccc2ncsc2c1` [Example 70, (Z)-5-(benzo[d][1,3]dioxol-5-ylmethylene)-2-(benzo[d]thiazol-6-yl(methyl)amino)-3,5-dihydro-4H-imidazol-4-one], the values for the IC50 in experiment [1] and in experiment [2] were more than 10 µM and more than 10000 nM, respectively.
